Measured values reported in patent publication US7060678B2, “Peptides comprising furanoid sugar amino acids for the treatment of cancer” (Dabur Research Foundation, priority 2003, dated 2006).
Where two headings read alike, the source gives them in different places. Starred links: 1 amine or outer side, 2 acyl side, 3 side chain; linkers in the order of their positions; H or OH if unused. Non-standard residues stand in square brackets, D forms with d. Residues, ends and D or L forms follow the SMILES beside them. X2 = O=C([C@@H]1CC[C@H](CN[*:1])O1)[*:2]; X1 = O=C(C1CCC(CN[*:1])O1)[*:2]

How the values were obtained:
ECV-304 (endothelial) = conditions: ECV-304 cells, 48 hours, NA = Not Active
From the text: Although sterile phosphate buffered saline was used to prepare each stock solution for the testing described in the following example, other diluents may be used such as buffered saline, isotonic NaCl, Ringer's solution, water, distilled water, polyethylene glycol (neat or in water), Tween in water, dimethylsulfoxide up to 50% in water, propylene glycol (neat or in water), phosphate buffered saline, balanced salt solution, glycerol, and other conventional fluids that are suitable for parentral administration. To obtain a pH in the range of approximately 3.5 to 7.0, for each stock solution, the pH can be adjusted by using 1N HCl for lowering the pH or 1N NaOH for raising the pH, although other buffers such as citrate buffer, phosphate buffer and the like or other conventional agents for adjusting the pH can be used.
The MTT assay is based on the principle of uptake of MTT [3-[4,5-dimethylthiazol-2-yl]-2,5-diphenyl tetrazolium bromide], a tetrazolium salt, by the metabolically active cells where it is metabolized by active mitochondria into a blue colored formazan product which can be read spectrophotometrically. […] The formazan crystals formed inside the cells were dissolved with a detergent comprising of 10% Sodium dodecyl sulfate and 0.01 N HCl and optical density read on a multi-scan ELISA reader. The optical density was directly proportional to the number of proliferating and metabolically active cells. The following cell lines were used. PA1(human ovary), PTC (colon), HeP-2 (larynx), MiaPaCa.2 (human pancreas), KB (oral), ECV-304 (endothelial) and HeP-G2 (liver).

[1] = test system: MiaPaCa.2 (human pancreas); experiment: MTT cytotoxicity assay, MiaPaCa.2 cells; assay type: cell-based; conditions: 48 hours
From the text: (§1) The following cell lines were used.

HeP-G2 (liver) = experiment: MTT cytotoxicity assay, HeP-G2 cells; assay type: cell-based, human; conditions: 48 hours
From the text: as §1

HeP-2 (larynx) = experiment: MTT cytotoxicity assay, HeP-2 cells; assay type: cell-based, human; conditions: 48 hours
From the text: as §1

KB (oral) = experiment: MTT cytotoxicity assay, KB cells; assay type: cell-based, human; conditions: 48 hours
From the text: as §1

PTC (colon) = experiment: MTT cytotoxicity assay, PTC cells; assay type: cell-based, human; conditions: 48 hours
From the text: as §1

PA1 (human ovary) = experiment: MTT cytotoxicity assay, PA1 cells; assay type: cell-based; conditions: human, 48 hours
From the text: as §1

[2] = test system: human colon adenocarcinoma (PTC) xenografts; experiment: In vivo antitumour activity on primary tumor (colon) xenografted mice; parameters: species or system Balb/c athymic mice; conditions: PTC xenografts in nude mice; intravenously 0.5 mg/Kg. B. Wt twice a day; till day 21
Description: The antitumor activity of the peptide (SEQ ID NO: 12) was studied in human colon adenocarcinoma (PTC) xenografts in nude mice. PTC tumor xenografts were grown in Balb/c athymic mice by subcutaneous inoculation of a single cell suspension of PTC cells (15×10^6 cells/100 μL). The tumor bearing animals were divided into 2 groups of five animals each including one group comprising untreated control animals. Treatment with novel peptide was initiated when the average tumor volumes, as measured using a vernier caliper, were between 400–800 mm^3. Solution of SEQ ID NO 12 was prepared at a concentration of 100 μg/ml and intravenously administered to the assigned group of tumor bearing animals at a dose of 0.5 mg/Kg. B. Wt twice a day so that the total dose of 1 mg/Kg. B. Wt was administered to each animal. The treatment was continued for a period of 21 days.
The antitumor activity of the compounds was monitored by measuring tumor volumes every fourth day using the formula W*W*L*0.4 (W=smaller diameter, L=larger diameter). The percentage inhibition of tumor growth was calculated using the formula (1-tumor volume-treated/tumor volume-control)* 100.

Row | Compound | Percent Cytotoxicity (ECV-304 (endothelial); peptide 1 nM) [%] | Percent Cytotoxicity (ECV-304 (endothelial); peptide 10 nM) [%] | Percent Cytotoxicity (ECV-304 (endothelial); peptide 100 nM) [%] | Percent Cytotoxicity (ECV-304 (endothelial); peptide 1 μM) [%] | Percent Cytotoxicity (PA1 (human ovary); 1 nM) [%] | Percent Cytotoxicity (PA1 (human ovary); 10 nM) [%] | Percent Cytotoxicity (PA1 (human ovary); 100 nM) [%] | Percent Cytotoxicity (PA1 (human ovary); 1 μM) [%] | Percent Cytotoxicity ([1]; human, 1 nM) [%] | Percent Cytotoxicity ([1]; human, 10 nM) [%] | Percent Cytotoxicity ([1]; human, 100 nM) [%] | Percent Cytotoxicity ([1]; human, 1 μM) [%] | Percent Cytotoxicity (HeP-2 (larynx); human, 1 nM) [%] | Percent Cytotoxicity (HeP-2 (larynx); human, 10 nM) [%] | Percent Cytotoxicity (HeP-2 (larynx); human, 100 nM) [%] | Percent Cytotoxicity (HeP-2 (larynx); human, 1 μM) [%] | Percent Cytotoxicity (PTC (colon); human, 1 nM) [%] | Percent Cytotoxicity (PTC (colon); human, 10 nM) [%] | Percent Cytotoxicity (PTC (colon); human, 100 nM) [%] | further results
1 | CSCC[C@H](NC(=O)[C@@H](N)CC(C)C)C(=O)NC[C@H]1CC[C@@H](C(=O)N[C@H](C(=O)N[C@@H](Cc2ccc(O)cc2)C(=O)N[C@@H](CC(C)C)C(=O)N[C@@H](CCCCN)C(=O)O)[C@@H](C)O)O1 [SEQ ID NO: 9, Leu-Met-Saa4-Thr-Tyr-Leu-Lys] (H-LM[X2]TYLK-OH) | 12.8 ± 1.4 | 15.8 ± 1.1 | 10.4 ± 2.0 | 7.9 ± 0.4 | – | – | – | – | – | – | – | – | – | – | – | – | – | – | – | Percent Cytotoxicity ([1]; MiaPaCa.2 cells, peptide 1 nM, NA = Not Active): 14.8 ± 2.9%; Percent Cytotoxicity ([1]; MiaPaCa.2 cells, peptide 10 nM, NA = Not Active): 12.9 ± 1.5%; Percent Cytotoxicity ([1]; MiaPaCa.2 cells, peptide 100 nM, NA = Not Active): 9.3 ± 1.1%; Percent Cytotoxicity ([1]; MiaPaCa.2 cells, peptide 1 μM, NA = Not Active): 5.9 ± 0.0%; Percent Cytotoxicity (HeP-G2 (liver); HeP-G2 cells, peptide 1 nM, NA = Not Active): 11.2 ± 1.1%; Percent Cytotoxicity (HeP-G2 (liver); HeP-G2 cells, peptide 10 nM, NA = Not Active): 10.7 ± 1.1%; Percent Cytotoxicity (HeP-2 (larynx); HeP-2 cells, peptide 1 nM, NA = Not Active): 20.9 ± 2.0%; Percent Cytotoxicity (HeP-2 (larynx); HeP-2 cells, peptide 10 nM, NA = Not Active): 21.0 ± 1.9%; Percent Cytotoxicity (HeP-2 (larynx); HeP-2 cells, peptide 100 nM, NA = Not Active): 18.8 ± 1.9%; Percent Cytotoxicity (HeP-2 (larynx); HeP-2 cells, peptide 1 μM, NA = Not Active): 14.6 ± 1.6%; Percent Cytotoxicity (KB (oral); KB cells, peptide 1 nM, NA = Not Active): 14.5 ± 1.8%; Percent Cytotoxicity (KB (oral); KB cells, peptide 10 nM, NA = Not Active): 12.5 ± 1.9%; Percent Cytotoxicity (KB (oral); KB cells, peptide 100 nM, NA = Not Active): 10.5 ± 1.2%; Percent Cytotoxicity (PTC (colon); PTC cells, peptide 1 nM, NA = Not Active): 33.5 ± 2.9%; Percent Cytotoxicity (PTC (colon); PTC cells, peptide 10 nM, NA = Not Active): 31.9 ± 2.8%; Percent Cytotoxicity (PTC (colon); PTC cells, peptide 100 nM, NA = Not Active): 29.5 ± 2.7%; Percent Cytotoxicity (PTC (colon); PTC cells, peptide 1 μM, NA = Not Active): 26.0 ± 2.2%
2 | CSCC[C@H](NC(=O)[C@@H](N)CC(C)C)C(=O)N[C@@H](Cc1ccc(O)cc1)C(=O)NCC1CCC(C(=O)N[C@@H](Cc2ccc(O)cc2)C(=O)N[C@@H](CC(C)C)C(=O)N[C@@H](CCCCN)C(=O)O)O1 (stereo partly drawn) [SEQ ID NO: 12, Leu-Met-Tyr-Saa3-Tyr-Leu-Lys] (H-LMY[X1]YLK-OH) | 32.0 ± 3.9 | 36.9 ± 3.2 | 27.9 ± 2.9 | 22.2 ± 2.2 | 20.2 ± 2.1 | 24.6 ± 2.7 | 39.3 ± 3.0 | 32.1 ± 2.0 | 23.8 ± 3.2 | 30.6 ± 3.9 | 21.9 ± 0.2 | 13.9 ± 2.7 | 21.9 ± 2.9 | 39.3 ± 3.2 | 32.2 ± 1.9 | 28.9 ± 3.2 | 12.7 ± 1.8 | 14.8 ± 1.9 | 10.8 ± 2.0 | antitumor activity on PTC xenografts (tumor volume kinetics, FIG. 1) [2]: significant antitumor activity; Percent Cytotoxicity (KB (oral); human, 1 nM): 32.9 ± 4.3%; Percent Cytotoxicity (KB (oral); human, 10 nM): 37.4 ± 2.9%; Percent Cytotoxicity (KB (oral); human, 100 nM): 33.2 ± 0.4%; Percent Cytotoxicity (KB (oral); human, 1 μM): 19.9 ± 1.9%
3 | CSCC[C@H](N)C(=O)NC[C@H]1CC[C@@H](C(=O)N[C@@H](Cc2ccc(O)cc2)C(=O)N[C@@H](CC(C)C)C(=O)O)O1 [SEQ ID NO: 17, Met-Saa4-Tyr-Leu] | 16.4 ± 1.9 | 13.9 ± 0.5 | 11.9 ± 1.1 | – | 18.2 ± 1.1 | 17.8 ± 1.7 | 15.9 ± 0.6 | 6.0 ± 0.7 | 23.0 ± 2.1 | 21.8 ± 1.9 | 17.0 ± 0.9 | 16.0 ± 1.4 | 33.6 ± 2.7 | 31.7 ± 3.2 | 29.0 ± 0.4 | 27.9 ± 2.9 | 12.0 ± 1.7 | 11.9 ± 1.4 | 10.4 ± 0.6 | Percent Cytotoxicity (HeP-G2 (liver); human, 1 nM): 12.8 ± 0.6%; Percent Cytotoxicity (HeP-G2 (liver); human, 10 nM): 17.9 ± 1.4%; Percent Cytotoxicity (HeP-G2 (liver); human, 100 nM): 20.9 ± 1.4%; Percent Cytotoxicity (HeP-G2 (liver); human, 1 μM): 12.0 ± 0.7%; Percent Cytotoxicity (PTC (colon); human, 1 μM): 8.4 ± 1.0%
